According to article PMC8333425, “Discovery of a dual Ras and ARF6 inhibitor from a GPCR endocytosis screen” (Nature Communications, 2021):

Experiments:
[1] = tested on: β-arrestin2; assay: Confocal microscopy of β-arrestin2-YFP trafficking with B2R; type: cell-based, human; conditions: 50 μM; BK
Procedure: One day before transfection, cells were seeded in 35-mm glass-bottom dishes (MatTek Corporation) at a density of 1 × 10^5 cells per dish. For the recordings of receptor internalization, HEK293 SL cells were transfected with 2 μg of AT1R-YFP. For the recordings of β-arrestin-2 recruitment to the receptor, HEK293SL cells were transfected with 50 ng of β-arrestin2-YFP and 250 ng of Flag-AT1R or HA-B2R. Forty-eight hours post-transfection, cells were serum starved, preincubated with DMSO (0.1% final concentration) or Rasarfin (50 μM) for 30 min at 37 °C. AT1R-expressing cells were stimulated with angiotensinII (AngII; 100 nM) and B2R-expressing cells were stimulated with bradykinin (BK; 1 μM) for 30 min (receptor-YFP) or 15 min (β-arrestin2-YFP). Cells were imaged with Zeiss LSM-510 and/or LSM-710 laser scanning confocal microscope. To detect YFP, […] and BP 505–550 nm emission filter. Images (2048 × 2048) were collected using a 63x oil immersion lens.

[2] = tested on: Ras; assay: Ras BRET sensor (Raf1-RBD-RlucII / rGFP-CAAX), AT1R-mediated; type: cell-based, human
Text: Since 21 inhibited both ERK1/2 and Akt activation by GPCRs and EGFR, we looked at a common target involved in both pathways. The small G protein Ras is an upstream regulator of both Ras-RAF-MEK-ERK and PI3K/Akt signaling pathways[35],[36]. Therefore, we explored 21’s ability to inhibit Ras activity using GST-Raf1-Ras-binding domain (RBD) in a pull-down assay. A reduction of 60% in GTP-bound Ras was noticed in pulled-down from cells treated with 21 and stimulated with either AT1R or EGFR, as compared to vehicle-treated cells (Fig. 4a, b). Complementary to this in vitro assay, we generated a Ras BRET assay, using the Raf-Ras binding domain tagged with RlucII (Raf1-RBD-RlucII) and the rGFP at the PM (rGFP-CAAX) (Supplementary Fig. 3c), to assess 21’s effects on Ras activation kinetics. […] Overexpression of either the active form of Ras (G12V) or SOS1 anchored at the PM (SOS-CAAX) produced a robust basal BRET signal that was no longer modulated by receptor activation (Supplementary Fig. 3d). […] 21’s potency to inhibit ARF6 and Ras is also consistent with its relative efficacy for inhibiting AT1R internalization and MAPK, respectively, when used at 50 μM (e.g., around 7 and 70 times the respective IC50s) (Figs. 2e and 3a). We also assessed if 21 was acting as a pan small G protein inhibitor by testing its effect on Rho and Rac/Cdc42. […] To assess Rac/Cdc42 activity, we generated a Rac/Cdc42 BRET sensor that consisted of the PAK-CRIB domain fused to RlucII (PAK-CRIB-RlucII) and the rGFP-CAAX (Supplementary Fig. 3e). PAK-CRIB, which binds to active Rac/Cdc42, was recruited to the PM upon AngII stimulation of cells and generated a robust BRET signal, which was blocked by the overexpression of the DN Rac1-T17N. Overexpression of the constitutively active Rac1-Q61L increased the basal BRET, which was no longer modulated by AT1R stimulation (Supplementary Fig. 3f).
HEK293SL cells were seeded at a density of 7.5 × 10^5 cells per 100-mm dish and 24 h later, transiently transfected as such. For receptor internalization experiments, cells were transfected with 0.12 μg AT1R-RlucII, B2R-RlucII, or β2AR-RlucII and 0.48 μg of either rGFP-CAAX (to assess removal from the PM) or rGFP-FYVE (to assess accumulation in the endosomes). For β-arrestin recruitment assays, cells were transfected with 0.48 μg of receptor-YFP along with 0.12 μg of β-arrestin-RlucII. For β-arrestin/AP-2 binding experiments, cells were transfected with 1 μg Flag-AT1R, 1 μg β2-Adaptin-YFP, and 0.12 μg β-arrestin2-RlucII. For G protein activation, cells were transfected with 3 μg of sp-Flag-AT1R along with either 4.5 μg of the Gαq-polycistronic BRET sensor or 0.24 μg of the Gαi3-RlucII and 0.6 μg of GFP10-Gγ2 and Gβ1 sensors or 0.12 μg PKN-RBD-RlucII and 0.48 μg of rGFP-CAAX. For PKC activation, cells were transfected with 3 μg of sp-Flag-AT1R and 0.18 μg of the PKC sensor. For GTPase activation experiments, cells were transfected with 1 μg Flag-AT1R, 0.48 μg of rGFP-CAAX, and either 0.12 μg of GGA3-PBD-RlucII, PAK-CRIB-RlucII or Raf-RBD-RlucII. For biosensor validation experiments, cells were additionally transfected with 500 ng Flag-K-Ras-WT, Flag-K-Ras-G12V, Flag-K-Ras-SOS-CAAX, HA-ARF6-WT, HA-ARF6-T27N, Myc-Rac1-WT, Myc-Rac1-Q61L or Myc-Rac1-T17N. For PI3K/Akt activation experiments, cells were transfected with 0.48 μg of rGFP-CAAX and 0.12 μg of Akt (PH)-RlucII. After 18 h of transfection, the media was replaced and cells were divided for subsequent experiments. Cells were detached and seeded onto poly-L-ornithine-coated 96-well flat white bottom plates (BrandTech Scientific) at a density of 2.5 × 10^4 cells per well in media. The next day, cells were washed once with Tyrode’s buffer (140 mM NaCl, 2.7 mM KCl, 1 mM CaCl2, 12 mM NaHCO3, 5.6 mM D-glucose, 0.5 mM MgCl2, 0.37 mM NaH2PO4, 25 mM HEPES, pH 7.4) and left in Tyrode’s buffer. […]

[3] = tested on: AT1R; conditions: Barbadin 100 µM; cited from earlier work

Structure (SMILES) | β-arrestin trafficking with B2R into endosomes (microscopy) [1] | decrease of Ras activation following AT1R stimulation (Ras BRET assay) ([2]; 50 μM) | IC50 ([2]; AT1R, dose-response) [nM] | Ras BRET sensor signal (Fig.4c), single experiments ([2]; Comp 21 50 μM, Time 0 min) | Ras MEAN (Fig.4d) ([2]; Log [Comp 21] (M) -4) | Ras MEAN (Fig.4d) ([2]; Log [Comp21] (M) -4.3) | Ras MEAN (Fig.4d) ([2]; Log [Comp21] (M) -5) | Ras MEAN (Fig.4d) ([2]; Log [Comp21] (M) -5.3) | Ras MEAN (Fig.4d) ([2]; Log [Comp 21] (M) -6) | Ras MEAN (Fig.4d) ([2]; Log [Comp21] (M) -6.3) | Ras MEAN (Fig.4d) ([2]; Log [Comp 21] (M) -7) | receptor internalization [3]
CC(C)C(=O)N1CCN(c2ccc(NC(=O)c3cc4ccccc4o3)cc2Cl)CC1 [Compound 21] | prevented β-arrestins’ trafficking with receptors into endosomes | 50–70% | 700 | 0 | 16.3196 | 30.5907 | 29.6351 | 36.1989 | 54.1758 | 74.1367 | 95.616 | 
Nn1cnc2scc(-c3ccc(Cc4ccccc4)cc3)c2c1=O [Barbadin, reference compound] |  |  |  |  |  |  |  |  |  |  |  | blocked receptor internalization
